Here are results for 1 molecule from ChEMBL document CHEMBL4673218, “Kojyl cinnamate esters are peroxisome proliferator-activated receptor α/γ dual agonists” (Bioorg Med Chem, 2018).

The source made the active and inactive calls. The rule behind the calls is not given here.

Assay [1] deals with T1, PPAR alpha/gamma (Homo sapiens) (UniProt P37231+Q07869). The assay can be described thus: Agonist activity at PPARalpha/PPARgamma in human AT-MSC cells assessed as upregulation of ACACB mRNA at 10 uM incubated for 3 days by qRT-PCR analysis. The class given is cell-based. Particulars: Adipose tissue derived mesenchymal stem cell, filed as agonist, time 3.0 day.
The target in assay [2] is T1, PPAR alpha/gamma (Homo sapiens). The assay can be described thus: Agonist activity at PPARalpha/PPARgamma in human NHEK cells assessed as upregulation of FADS1 mRNA at 10 uM incubated for 3 days by qRT-PCR analysis. The assay is classed as cell-based. Conditions: filed as agonist, time 3.0 day.
For assay [3] the target is unchanged. The assay can be described thus: Agonist activity at PPARalpha/PPARgamma in human NHEK cells assessed as upregulation of HMGCS2 mRNA at 10 uM incubated for 3 days by qRT-PCR analysis. Conditions: filed as agonist, time 3.0 day. The class given is cell-based.
For assay [4] the target is unchanged. The assay can be described thus: Agonist activity at PPARalpha/PPARgamma in human NHEK cells assessed as upregulation of FASN mRNA at 10 uM incubated for 3 days by qRT-PCR analysis. Conditions: time 3.0 day. The assay is classed as cell-based.
For assay [5] the target is unchanged. The assay can be described thus: Agonist activity at PPARalpha/PPARgamma in human NHEK cells assessed as upregulation of SCD1 mRNA at 10 uM incubated for 3 days by qRT-PCR analysis. The assay is classed as cell-based. Particulars: filed as agonist, time 3.0 day.
Assay [6] concerns the target T2, Peroxisome proliferator-activated receptor gamma (Homo sapiens) (UniProt P37231).
T2 sequence (whole entry): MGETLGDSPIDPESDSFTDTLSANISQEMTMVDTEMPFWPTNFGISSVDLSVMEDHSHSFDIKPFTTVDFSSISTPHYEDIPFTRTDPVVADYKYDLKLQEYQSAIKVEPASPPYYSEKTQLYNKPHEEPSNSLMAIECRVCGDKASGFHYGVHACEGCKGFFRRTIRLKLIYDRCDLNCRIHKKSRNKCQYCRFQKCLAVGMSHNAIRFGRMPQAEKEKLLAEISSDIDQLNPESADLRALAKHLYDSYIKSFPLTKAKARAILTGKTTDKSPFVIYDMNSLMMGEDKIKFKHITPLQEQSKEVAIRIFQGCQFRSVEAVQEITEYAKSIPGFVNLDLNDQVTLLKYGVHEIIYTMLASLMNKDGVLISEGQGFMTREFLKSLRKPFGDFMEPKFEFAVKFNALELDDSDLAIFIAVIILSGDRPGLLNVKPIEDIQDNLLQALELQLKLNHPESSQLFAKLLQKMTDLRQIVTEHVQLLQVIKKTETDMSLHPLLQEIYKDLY
The assay can be described thus: Binding affinity to human recombinant PPARgamma at 30 uM by competitive binding based TR-FRET assay relative to control. Conditions: filed as agonist.

Assay [7] has as its target T3, Peroxisome proliferator-activated receptor alpha (Homo sapiens, UniProt Q07869).
T3 sequence (Q07869 whole entry): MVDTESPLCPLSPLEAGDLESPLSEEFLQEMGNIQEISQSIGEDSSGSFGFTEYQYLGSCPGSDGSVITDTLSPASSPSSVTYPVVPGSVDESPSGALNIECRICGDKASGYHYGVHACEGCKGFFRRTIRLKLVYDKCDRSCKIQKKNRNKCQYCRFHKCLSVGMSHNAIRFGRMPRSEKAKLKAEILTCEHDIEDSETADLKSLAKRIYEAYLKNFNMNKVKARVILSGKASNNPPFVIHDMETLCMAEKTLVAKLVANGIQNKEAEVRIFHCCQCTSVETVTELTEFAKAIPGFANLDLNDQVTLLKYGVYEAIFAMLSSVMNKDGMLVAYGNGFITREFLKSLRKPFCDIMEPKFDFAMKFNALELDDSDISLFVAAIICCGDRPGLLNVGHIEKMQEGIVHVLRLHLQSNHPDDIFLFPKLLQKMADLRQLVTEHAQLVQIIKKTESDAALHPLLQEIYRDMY
The assay can be described thus: (§1) Binding affinity to human recombinant PPARalpha by Cheng-Prusoff equation based competitive binding TR-FRET assay.

The target of assay [8] is T4, Peroxisome proliferator-activated receptor alpha (Homo sapiens) (UniProt Q07869).
T4 sequence (whole entry): T3 sequence (Q07869 whole entry)
The description is as §1. Conditions: filed as agonist.

The next assay relates to NHEK. The assay can be described thus: Inhibition of UVB-induced MMP1 mRNA in human NHEK cells at 10 uM incubated for 24 hrs by qRT-PCR analysis. The class given is functional, cell-based.
A short description of assay [9]: Induction of adipogenesis in human AT-MSC assessed as adiponectin secretion at 30 uM in IDX medium incubated for 5 days by ELISA (reference value: 100 +/- 15 pg/ml). The class given is functional, Adipose tissue derived mesenchymal stem cell. Particulars: time 5 day.
The target in assay [10] is T5, Oxysterols receptor LXR-alpha (Homo sapiens) (UniProt Q13133).
T5 sequence (whole entry): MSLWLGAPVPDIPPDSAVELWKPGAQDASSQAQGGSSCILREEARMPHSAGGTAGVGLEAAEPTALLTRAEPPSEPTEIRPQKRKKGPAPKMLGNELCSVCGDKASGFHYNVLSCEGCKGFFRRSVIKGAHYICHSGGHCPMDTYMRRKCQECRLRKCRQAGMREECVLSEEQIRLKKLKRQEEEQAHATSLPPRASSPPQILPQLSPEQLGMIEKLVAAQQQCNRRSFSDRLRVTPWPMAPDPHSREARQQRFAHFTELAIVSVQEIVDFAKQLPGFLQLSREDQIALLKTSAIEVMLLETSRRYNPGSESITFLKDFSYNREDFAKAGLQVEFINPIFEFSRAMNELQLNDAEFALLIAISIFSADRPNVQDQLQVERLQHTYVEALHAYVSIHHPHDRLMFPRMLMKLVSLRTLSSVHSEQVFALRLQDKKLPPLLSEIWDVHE
The assay can be described thus: Binding affinity to human LXRalpha at 30 uM by competitive ligand binding based TR-FRET assay.

Take `COc1ccc(OC)c(/C=C/C(=O)OCc2cc(=O)c(O)co2)c1`: the outcome in assay [1], in assay [2], in assay [3] and in assay [5] was Active. Further, the outcome in assay [4] and in assay [10] was inactive. Further, the Activity in assay [6] is 77%; in assay [8] it was “Dose-dependent effect”; in assay [9] it was 383 pg/mL. Besides, the Ki in assay [7] came out at 9.5 µM. Moreover, the inhibition entry in the assay on NHEK is “Active”.
